Laboratory results: PubChem BioAssay AID743417 (Broad Institute, 2014)
Values joined by “and” are separate entries in the source; they are usually repeats but may differ in a detail not shown here. Identical values can stand only once. Records with an inconclusive call do not appear. Active and inactive are the calls of the source.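 Rule for the calls: active = compounds lowering the luciferase signal with a fitted half-maximal dose at most twice their top valid dose (cut at about 30 µM in these data); inconclusive = flat fits with moderate signal loss, or poor fits; inactive = the rest.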

tested on: Clone20 osteoblast Shn3 3'UTR firefly luciferase, 24 h; assay: Schnurri-3 3'UTR-luciferase signal suppressors – cell-based, Clone20 osteoblasts, luminescence, dry powder, set 2, dose response (AID 743417)

SMILES	AC50
CN(Cc1ccc(OC(F)F)cc1)C(=O)c1cccc(S(=O)(=O)N2CCN(c3ccccc3)CC2)c1	2.59 µM
C/C1=C\[C@@H](C)C/C=C/[C@H]2[C@@H]3O[C@]3(C)[C@@H](C)[C@H]3[C@H](Cc4c[nH]c5ccccc45)NC(=O)[C@]32C(=O)/C=C/C(=O)[C@@H]1O	6.44 µM
CCOc1cc(CNCCc2ccc(S(N)(=O)=O)cc2)ccc1OCc1ccccc1	2.44 µM
Cc1c(C(=O)Nc2cccc(C(F)(F)F)c2)oc2ccc(S(=O)(=O)N3CCOCC3)cc12	3.8 µM
CCCCOCCCNc1ncnc2c1[nH]c1ccccc12	1.05 µM
COc1ccc(-c2noc(CCCCC(=O)N3CCN(c4cc(C)ccc4C)CC3)n2)cc1	1.75 µM
CCC(=O)NC(c1ccc(C)cc1)c1ccc2cccnc2c1O (centres undefined)	0.704 µM
Clc1ccc(C[n+]2cc(-c3ccccc3)n3c2CCCCC3)c(Cl)c1	1.2 µM
Nc1cc2c(cc1Br)[nH]c(=O)c1ccccc12	5.46 µM
Cc1cc(Br)c2c(c1)/C(=C/C(=O)c1cccs1)C(=O)N2	19.9 µM
C[C@H]1CCC/C=C/[C@@H]2C[C@H](O)C[C@H]2[C@H](O)/C=C/C(=O)O1	3.15 µM and 2.2 µM
c1csc(CCNc2ncnc3sc4c(c23)CCC4)c1	1.7 µM
CCCC(=O)OCCNc1cc(Sc2nc3ccccc3[nH]2)c2nonc2c1[N+](=O)[O-]	6.63 µM
CC(C)c1nnc(NC(=O)c2nc(S(=O)(=O)Cc3ccc(F)cc3)ncc2Cl)s1	2.83 µM
CC(C)=CCC/C(C)=C/CNC(=O)C[C@H]1C[C@H](C(=O)N2CCOCC2)[C@@]2(C)c3[nH]c4cc(CCC(=O)N(C)C)ccc4c3CCN2C1=O	1.11 µM
CS(=O)(=O)c1ccc(C(=O)OCC(=O)NCc2cccs2)cc1[N+](=O)[O-]	2.07 µM
Cc1ccc(S(=O)(=O)N2CCN(C(=O)C3CCN(c4ncnc5sc(C)c(C)c45)CC3)CC2)c(C)c1	2.12 µM
CN(C)C1=NC[C@H](Cc2ccccc2)N1CCCC1CCCC1	2.63 µM
O=C(OCn1ncc(Cl)c(Cl)c1=O)c1cccc(C(F)(F)F)c1	3.74 µM
COc1ccccc1/C=C1\CCCC2=C1Nc1nnnn1C2c1ccccc1OC (centres undefined)	36 µM

SMILES	AC50
CC(=O)O[C@H]1CCC2C3CC[C@H]4[C@@H](O)[C@H](O)CC[C@]4(C)C3CC[C@@]21C (some centres undefined)	> 70 µM (inactive)
C=CCNc1nc2c(c(=O)n(C)c(=O)n2C)n1CCCCCC	0.761 µM
CC(=O)NC(c1cc(Cl)c2cccnc2c1O)C(C)C (centres undefined)	2.96 µM
CCC(O)C1CCN(C(=O)c2cc(COc3ccc4ncccc4c3)on2)CC1 (centres undefined)	0.505 µM
CCOC(=O)c1c(NC(=O)C2c3ccccc3Oc3ccccc32)sc(C(C)=O)c1C	4.67 µM
COC(=O)C1=C(c2ccc(-c3ccccc3)c(F)c2)C[C@@H]2CC[C@H]1N2C(=O)NCC1CC1	4.32 µM
CC(C)N=C(N)N=C(N)Nc1ccc(Cl)cc1	0.37 µM
COC(=O)c1ccccc1NC(=O)c1nc(S(=O)(=O)Cc2ccccc2)ncc1Cl	0.428 µM
O=C1/C(=C/c2ccccc2)C[C@@]2(O)[C@H]3Cc4ccc(O)c5c4[C@@]2(CCN3CC2CC2)C1O5 (some centres undefined)	4.64 µM
CC[C@]12c3[nH]c4cc(CCC(=O)N(C)C)ccc4c3CCN1C(=O)[C@@H](CC(=O)NC/C=C(\C)CCC=C(C)C)C[C@@H]2C(=O)N1CCN(C(=O)c2ccco2)CC1	1.68 µM
COc1ccc(C(=O)C(C)OC(=O)c2cccc(S(=O)(=O)Nc3cc(Cl)c(OC)cc3OC)c2)cc1 (centres undefined)	5.54 µM
CC(C)c1ccc(Oc2cccc3c2S(=O)(=O)N(C2CCCC2)CC(COCc2ccccc2)O3)cc1 (centres undefined)	15.5 µM
CN(C)S(=O)(=O)c1cccc(N=c2scc(-c3ccc4c(c3)NC(=O)CO4)n2CC2CCCO2)c1 (centres undefined)	14 µM
CC(C)Cc1ccc(C(C)C(=O)Nc2ccccc2O)cc1 (centres undefined)	1.89 µM
COc1cc(NC(=O)c2cccc3c(-c4cccnc4)coc23)cc(OC)c1OC	0.978 µM
Cc1ccc(NC(=O)CN(C)CC(=O)Nc2cccc(F)c2)cc1[N+](=O)[O-]	0.57 µM
O=C1c2c(O)ccc(O)c2C(=O)c2c(NCCNCCO)ccc(NCCNCCO)c21	0.658 µM
Cc1cccc(-n2ncc(Cl)c(Cl)c2=O)c1	5.8 µM
COc1ccc(NC(=O)CSc2ncccc2C(=O)OC(C)C)cc1OC	4.1 µM
